Measured values published in patent publication US20180250270A1, “MUSCARINIC COMBINATION AND ITS USE FOR COMBATING HYPOCHOLINERGIC DISORDERS OF THE CENTRAL NERVOUS SYSTEM” (Chase Pharmaceuticals Corporation, priority 2015, published 2018).
Read-outs that look alike come from different tables or passages of the source.

Assays:
muscarinic receptors = conditions: cited from earlier work
[1] = primate study; cited from earlier work
[2] = 6-month double-blind, placebo-controlled, parallel group trial of xanomeline in patients with Alzheimer disease; format: in vivo, human; conditions: in view of Mirza et al 2003; i.e. 225 mg/day
Text: A close analog of tazomeline, the 3-(4-hexyloxy-1,2,5-thiadiazol-3-yl)-1-methyl-5,6-dihydro-2H-pyridine known as xanomeline and described in U.S. Pat. No. 5,043,345, the disclosure of which is incorporated herein by reference in its entirety, has been disclosed as a muscarinic acetylcholine receptor agonist with reasonable selectivity for the M1 and M4 subtypes. The efficacy of xanomeline, which stimulates muscarinic receptors in the brain and in the periphery was studied in patients with Alzheimer disease in a 6-month double-blind, placebo-controlled, parallel group trial. […] Such side effects prevented the use of doses of xanomeline that could achieve maximum anti-dementia efficacy and reflect stimulation of cholinergic receptors outside the brain.
Dose-limiting adverse events attending the use of drugs that stimulate cholinergic transmission, such as xanomeline, appear to primarily reflect the excessive stimulation of peripheral cholinergic receptors, especially those of the muscarinic type (mAChRs), such that in both healthy volunteers and Alzheimer's patients many of these side effects have been reported for xanomeline; in the patient population this led to a discontinuation rate higher than 50% while the effects on cognition were not robust and mainly seen at the highest doses tested (Mirza 2003).

[3] = cited from earlier work
[4] = cited from earlier work; remark: listed apart in the source
[5] = system: peripheral cholinergic receptors; conditions: monkeys; cited from earlier work
[6] = clinical trials for Alzheimer disease; cited from earlier work
[7] = system: peripheral cholinergic receptors; conditions: rats; cited from earlier work

## CCCCSc1nsnc1[C@H]1CN2CCC[C@H]1C2 [BuTAC, (5R,6R)-6-(3-butylthio-1,2,5-thiadiazol-4-yl)-1-azabicyclo[3.2.1]octane]
Muscarinic receptors
  affinity for muscarinic receptors: high affinity
[1]
  vomiting: induced vomiting

## CCCCCCOc1nsnc1C1=CCCN(C)C1 [xanomeline, 3-(4-hexyloxy-1,2,5-thiadiazol-3-yl)-1-methyl-5,6-dihydro-2H-pyridine]
[2]
  maximum tolerated dose as considered in the context of the invention: 75 mg three times per day
[3]; defined by Sramek et al.
  MTD: 100 mg three times a day
[3]; human, in vivo
  minimum intolerated dose: 115 mg three times a day
[4]; 75 mg xanomeline orally three times daily, mainly adverse events, predominantly gastrointestinal
  patients who discontinued treatment: 59%
[4]; 6-month trial
  cognitive and behavioral symptoms of Alzheimer disease compared to placebo: significantly improve
[4]; Alzheimer's patient population (Mirza 2003)
  discontinuation rate: higher than 50%
[4]; bradycardia, gastro-intestinal distress, excessive salivation, sweating
  side effects: dose-dependent unacceptable side effects

## CO/N=C/C1=CCCN(C)C1 [milameline, (E)-N-methoxy-1-(1-methyl-1,2,5,6-tetrahydropyridin-3-yl)methanimine]
[5]
  doses producing central cholinergic action relative to peripheral action: at doses slightly higher than those stimulating peripheral cholinergic receptors
[6]
  maximum tolerated dose: 2 mg four times per day
[7]
  doses producing central cholinergic action relative to peripheral action: at doses slightly higher than those stimulating peripheral cholinergic receptors
